Read-outs that look alike come from different tables or passages of the source.
Key:
[1] = Metabolic stability assay, human microsomes; type: in vitro ADME; settings: both, human, microsomes, 10 µM
[2] = Metabolic stability assay, rat microsomes (values in parentheses); type: in vitro ADME; settings: value in parentheses
[3] = Pharmacokinetic study after single i.v. and p.o. administration in male SD rats; type: in vivo; settings: rat; for half-life: read-out: T1/2 (terminal) (converted)
Description: 5. Pharmacokinetic Study (PK) Analysis
Pharmacokinetic analyses after single intravenous (i.v.) and two different peroral (p.o.) administrations were performed for the test compounds. 240 grams (±10 gram) male SD rats were catheterized and used in the study. The vehicle, Solutol HS-15/0.9% saline (5:95), was added to give a final concentration of 0.33 mg/ml of the compounds for i.v. application, and 0.5 or 2.0 mg/ml for p.o. applications. The volumes used for applications were 3 ml/kg i.v. and 10 ml/kg p.o. resulting in a final dose of 1 mg/kg for the intravenous dose and 5 or 20 mg/kg for the peroral doses.
Blood samples were withdrawn via the catheter at 1) predose, 5, 15, 30, 60, 120, 240, and 480 minutes for the i.v. application and 2) predose, 15, 30, 60, 120, 240, 480 and 720 minutes for the p.o. applications. Plasma was prepared by centrifugation of heparinized whole blood. Plasma samples (˜120 μl each time point, Li-Heparin, 20 IE/ml) were stored at −80° C. until HPLC-MSMS analysis.
Preparation of the Plasma Calibration Samples:
“Blank” rat plasma from untreated animals was used. Aliquots of plasma of 50 μL each were spiked with Internal Standard (ISTD) and with known amounts test compounds in order to obtain 11 plasma calibration samples in the range 0.25-4000 ng/mL.
Preparation of Plasma Samples:
To 50 μL of sample from treated animals 20 μL of internal standard were added. After mixing with 200 μL of acetonitrile, 2% HCOOH were added and each sample was vortexed for several seconds. Precipitated material was removed by centrifugation for 10 min (13200 rpm), the supernatant removed and dried under a constant flow of N2 (Porvair, MiniVap). To reconstitute the dried samples, 200 μL of [DMSO/acetonitrile/H2O, 4/4/2 (v/v/v)+2% HCOOH] were added and the sample was shaken for at least 5 minutes.
LC-MSMS Analysis of Samples:
Reconstituted samples were analysed by HPLC/MSMS on a reverse phase analytical column (BEH C18, 100×2.1 mm, 1.7 μm, Waters). Mobile phase A: H2O/acetonitrile (95:5, v:v) 0.1% formic acid, mobile phase B: Acetonitrile/H2O (95:5, v:v) 0.1% formic acid. Compounds were eluted from the column by using a gradient from 1% B to 60% B in 2.5 min.).
Pharmacokinetic Evaluation:
PK analysis was performed on mean values (generally n=3) using WinNonLin software (Version 5.3, Pharsight Corporation). The area under the curve AUC was calculated by the linear trapezoidal rule (linear interpolation, uniform weighting). AUC(t-∞) was estimated as Ct/b (b: elimination rate constant). […] the sum of AUC(0-t) and AUC(t-∞). Elimination half-life was calculated by the linear regression on at least three data points during the elimination phase. The time intervals selected for the half-life determinations were evaluated by the correlation coefficient (r^2), which should be at least above 0.85 and ideally above 0.96.
In case of i.v. administration the initial concentration at tzero was determined by extrapolation of the curve through the first two time points. Finally bioavailability after p.o. administration was calculated from the dose normalized AUC(0-∞) ration after p.o. versus i.v. administration.

in vitro [4] = type: in vitro ADME, human; settings: human, plasma, 10 µM
in vitro [5] = type: in vitro ADME, mouse; settings: both, CD-1, mouse, plasma, 10 µM
[6] = Metabolic stability assay, CD-1 mouse microsomes; type: in vitro ADME; settings: both, CD-1, mouse, microsomes, 10 µM
Motilin Receptor = molecular target: T1, Motilin Receptor (Homo sapiens, UniProt O43193); test: Ca2+ assay (FLIPR) for the GPCR motilin receptor, agonist and antagonist mode; type: cell-based; settings: antagonist mode, at 10 μM
T1 construct: host or cells: Ca2+ optimized hematopoietic cell lines (rat)
T1 sequence (O43193 whole entry, species assumed): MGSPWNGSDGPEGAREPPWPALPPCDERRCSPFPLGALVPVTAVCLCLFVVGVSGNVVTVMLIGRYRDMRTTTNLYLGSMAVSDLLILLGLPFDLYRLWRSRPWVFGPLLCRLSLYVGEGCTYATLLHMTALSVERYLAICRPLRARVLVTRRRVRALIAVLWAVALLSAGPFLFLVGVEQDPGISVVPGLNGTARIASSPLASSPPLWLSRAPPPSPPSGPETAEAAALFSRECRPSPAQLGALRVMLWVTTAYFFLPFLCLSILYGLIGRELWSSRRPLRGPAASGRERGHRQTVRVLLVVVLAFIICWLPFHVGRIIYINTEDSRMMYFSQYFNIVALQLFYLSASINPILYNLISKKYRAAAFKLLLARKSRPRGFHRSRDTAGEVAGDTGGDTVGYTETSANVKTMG
Description: Ca^2+ Assays for the GPCRs Motilin Receptor, Prostaglandin F (FP) Receptor, 5-hydroxytryptamine 2B (5-HT2B) Receptor, and Purinoreceptor P2Y1
Assays were performed using on a FLIPR^TETRA fluorometric imaging plate reader (Molecular Devices) with ScreenWorks Version 2 (Molecular Devices) as device operating and data analysis software.
Dose dependent agonist and antagonist activities were determined. Percentage activation and percentage inhibition values were determined.
Percentage activation was determined upon initial addition of the sample compounds followed by 10 minutes incubation at 25° C. Following compound incubation, reference agonists were added at EC80 to determine percentage inhibition.
Reference agonists were purchased from reputable commercial vendors and prepared according to each ligand's specifications. All handling of ligands were done to ensure proper control throughout the experiments.
Example compounds were weighed on a Microbalance (Mettler MX5) and dissolved in 100% DMSO to a final concentration of 2.5 mM and subsequently diluted into the assay buffer.
The Assay buffer was a supplemented HBSS (Hank's Balanced Salt Solution). HBSS was supplemented with 20 mM HEPES (4-(2-hydroxyethyl)-piperazin-1-ethansulfonic acid) and 2.5 mM Probenecid (Sigma P8761).
GPCR assays were performed using Ca^2+ optimized hematopoietic cell lines (rat) with cultures never exceeding 90% confluency. […] After seeding, the assay plates were incubated for forty-five (45) minutes at room temperature. After room temperature incubation, the assay plates were incubated at 37° C. 5% CO2 for 24 hours prior to assaying.
All GPCR assays were performed using Fluo-8 Ca^2+ dye. Ca^2+ dye was prepared at 1× dye concentration in GPCR assay buffer. After 24 hours of incubation, cells were washed with GPCR assay buffer, and then Ca^2+-dye (100 μL/well) was added.
The plates were incubated for 90 minutes at 30° C. 5% CO2 prior to FLIPR assay.
Compound plates were prepared to add 50 μL/well during the agonist assay mode. During the FLIPR assay, 50 μL/well from the compound plate was diluted 3-fold into the existing 100 μL/well from the dye loading step. Therefore all compounds were prepared as 3× the final concentration desired in the assay.
After completion of the first single addition assay run, assay plate was removed from the FLIPR Tetra and placed at 25° C. for seven (7) minutes before antagonist assay.
Using the EC80 values determined during the agonist assay, all pre-incubated sample compound and reference antagonist (if applicable) wells were stimulated at the EC80 of the reference agonist. As reference ligands for the first three assays their obvious natural ligands motilin, prostaglandin F2α, and serotonin (5-HT, 5-Hydroxytryptamine) were used; and for the P2Y1 assay 2MeSATP (2-methyl-thio-adeno-sine 5′-triphosphate, i.e. (2R,3S,4R)-5-(6-amino-2-methylsulfanyl-purin-9-yl)-3,4-dihydroxy-tetrahydrofuran-2-yl]methyl (hydroxy-phosphonooxy-phosphoryl)hydrogen phosphate) was applied.
After the addition of the reference agonist fluorescence was monitored for 180 sec using FLIPR Tetra.
Data Analysis and Results:
From the FLIPR data, with negative control correction enabled, the maximum statistic for each well was exported and percentage activation relative to Emax control was calculated.
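For Plasma Stability 240 min mouse [% remain.] in this document: sodium citrate stabilized mouse plasma, parent compound quantified by HPLC/MS/MS relative to its peak area at time zero, run in triplicate.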
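For Plasma Stability T½ [min] mouse in this document: sodium citrate stabilized mouse plasma, parent compound quantified by HPLC/MS/MS relative to its peak area at time zero, run in triplicate.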

## CN1CCC[C@H](NC(=O)CC(C)(C)C)C(=O)N2C[C@@H](O)C[C@H]2COc2cccc(c2)C1=O [Ex. 571, N-[(4S,6S,10S)-6-hydroxy-14-methyl-9,15-dioxo-2-oxa-8,14-diazatricyclo[14.3.1.0^4,8]icosa-1(20),16,18-trien-10-yl]-3,3-dimethylbutanamide]
[1]
  Metabolic Stability T½ [min] hum: > 60 min
[1]; 1 h
  Metabolic Stability 60 min hum [% remain.]: 90 % remain.
[2]; 60 min
  Metabolic Stability 60 min (rat) [% remain.]: 88 % remain.
[2]
  Metabolic Stability T½ [min] (rat): 60 (60) min
[3]; male, SD, plasma, iv, 1 mg/kg
  Cmax: 644 ng/mL
  Tmax: 0.08 h
  half-life: 1.7 h
[3]; male, SD, plasma, iv, 1 mg/kg, extrapolated to tzero
  C0: 932 ng/mL
[3]; male, SD, plasma, po, 5 mg/kg
  Cmax: 340 ng/mL
  Tmax: 0.25 h
  bioavailability: 29%
  half-life: 2.18 h
[3]; male, SD, plasma, po, 20 mg/kg
  Cmax: 1520 ng/mL
  Tmax: 0.25 h
  bioavailability: 27.2%
  half-life: 2.3 h
[3]; iv, 1 mg/kg
  AUC(t-∞) dose normalized: 321.32 kg·ng·h/mL/mg
  Cmax dose normalized: 643.67 kg·ng/mL/mg
  V (terminal): 7.61859 L/kg
[3]; po, 5 mg/kg
  AUC(t-∞) dose normalized: 93.34 kg·ng·h/mL/mg
  Cmax dose normalized: 68.07 kg·ng/mL/mg
[3]; po, 20 mg/kg
  AUC(t-∞) dose normalized: 87.49 kg·ng·h/mL/mg
  Cmax dose normalized: 75.83 kg·ng/mL/mg
In vitro [4]
  Plasma Stability T½ [min] hum: > 240 min
In vitro [4]; 4 h
  Plasma Stability 240 min hum [% remain.]: 86 % remain.
In vitro [5]
  Plasma Stability T½ [min] mouse: > 240 min
In vitro [5]; 4 h
  Plasma Stability 240 min mouse [% remain.]: 89 % remain.
[6]
  Metabolic Stability T½ [min] mouse: > 60 min
[6]; 1 h
  Metabolic Stability 60 min mouse [% remain.]: 74 % remain.

## CN(C)CCCNC(=O)[C@@H]1CCC(=O)N(C)CC(=O)N2C[C@@H](NC(=O)Cc3cccc4ccccc34)C[C@H]2COc2ccc(F)cc2C(=O)N1C [Ex. 488, (2S,11S,19aS)-N-[3-(dimethylamino)propyl]-15-fluoro-7,12-dimethyl-2-{[2-(1-naphthyl)acetyl]amino}-5,8,13-trioxo-2,3,6,7,8,9,10,11,12,13,19,19a-dodecahydro-1H,5H-pyrrolo[2,1-c] [1,4,7,12] benzoxatriazacyclopentadecine-11-carboxamide]
Motilin Receptor
  inhibition at 10 µM: 23%

Reference: patent US9512139B2, “Conformationally constrained, fully synthetic macrocyclic compounds” (POLYPHOR AG, priority 2009, dated 2016)
